# Data: publication PMC12386283, “Elucidating the Complex Structural and Molecular Mechanisms Driving P-Glycoprotein-Mediated Transport of Cardiac Glycosides” (International Journal of Molecular Sciences, 2025)
# “And” between values parts separate entries of the source, which are not always exact repeats. Equal values may be shown once. Read-outs that look alike come from different tables or passages of the source.
# How the values were obtained:
# [1] = target: T1, wild-type mouse Pgp (MDR3) (Mus musculus, UniProt P21447); assay: Pgp-mediated ATPase activity (Chifflet colorimetric Pi assay, proteoliposomes)
# Experimental: Overexpression of wild-type mouse Pgp (MDR3) was achieved by using genetically engineered strains of Pichia pastoris with a 6X histidine tag. The cells were cultured in glycerol media, and methanol was used to induce the overexpression of Pgp at the Bioexpression and Fermentation Facility (BFF), University of Georgia, Athens, GA, USA. A repeated cycle of freezing using liquid nitrogen, blending, and thawing was used to lyse the Pgp-expressing P. pastoris cells. The protein was purified using affinity chromatography with nickel-nitrilotriacetic acid (Ni-NTA) resin (Thermo Fisher Scientific, Waltham, MA, USA). DDM was used to solubilize the protein, and the solution was concentrated using Amicon Ultra-15 100 kDa cut-off filters (EMD Millipore, Billerica, MA, USA). […] The purified DDM-solubilized Pgp was aliquoted and stored at −80 °C for future analysis.
# Pgp was reconstituted into liposomes as previously described. Briefly, liposomes comprising 80% (w/v) Avanti Escherichia coli total lipid extract and 20% (w/v) cholesterol were dissolved in chloroform to achieve a final concentration of 10 mg mL^−1, and the volume was adjusted to 10 mL. […] The solution was subjected to ten cycles of freeze–thaw using liquid nitrogen and a water bath (67 °C), resulting in the formation of liposomes with varying sizes, and extruded eleven times in a LIPEX extruder (Northern Lipids, Burnaby, BC, Canada) to produce identical-sized liposomes, using a 400 nm cut-off filter.
# (§1) Approximately 40 µL of DDM-solubilized Pgp was dialyzed for two hours against HEPES buffer (20 mM HEPES, 100 mM NaCl, 5 mM MgCl2, 2 mM DTT, pH 7.4) to remove any remnants of the detergent, DDM. The dialyzed protein was mixed with 4 mg mL^−1 of the extruded liposomes and incubated on ice for at least one hour to allow Pgp to integrate into the liposomes. To remove any additional detergent and further facilitate Pgp integration into the liposome, the solution was dialyzed for a second time for two hours in HEPES buffer to form proteoliposomes, and the concentration of Pgp reconstituted in liposomes was determined using the Bio-Rad DC Protein assay. Finally, the solution was aliquoted and stored at −80 °C for future use.
# The Chifflet method is a colorimetric method that measures the amount of free inorganic phosphate (Pi) through the formation of ammonium molybdate and Pi complex, which produces a strong absorbance at 850 nm. The absorbance was measured on a 96-well plate using a CLARIOstar microplate reader (BMG Labtech, Ortenberg, Germany). […] The final concentrations of the proteoliposome and ATP were maintained at 50 nM and 3.2 mM, respectively. Orthovanadate was used as a control and run in parallel to the samples. Finally, the kinetic curves for ATPase activity were fit to a modified Michaelis-Menten equation (Equation (1)). Igor 6.2 Pro software (Wavemetrics, Tigard, OR, USA) was used for data analysis.(1) V=VmaxS/Km+S+Vbasal where V = Rate of ATP hydrolysis; Vmax = Maximum velocity of ATP hydrolysis; [S] = Substrate concentration; Km = Michaelis–Menten constant; and Vbasal = basal ATPase activity.
# [2] = target: T1, wild-type mouse Pgp (MDR3)
# Experimental: Overexpression of wild-type mouse Pgp (MDR3) was achieved by using genetically engineered strains of Pichia pastoris with a 6X histidine tag. The cells were cultured in glycerol media, and methanol was used to induce the overexpression of Pgp at the Bioexpression and Fermentation Facility (BFF), University of Georgia, Athens, GA, USA. A repeated cycle of freezing using liquid nitrogen, blending, and thawing was used to lyse the Pgp-expressing P. pastoris cells. The protein was purified using affinity chromatography with nickel-nitrilotriacetic acid (Ni-NTA) resin (Thermo Fisher Scientific, Waltham, MA, USA). DDM was used to solubilize the protein, and the solution was concentrated using Amicon Ultra-15 100 kDa cut-off filters (EMD Millipore, Billerica, MA, USA). The concentration of purified protein was measured at 280 nm using a calculated extinction coefficient of 1.28 per mg mL^−1 on a Nanodrop (DeNovix, Wilmington, DE, USA). […] The purified DDM-solubilized Pgp was aliquoted and stored at −80 °C for future analysis.
# as §1
# Acrylamide, an aqueous collisional quencher, can be used to determine the changes in conformation upon Pgp-drug interaction. The principle of this technique is that as the drug interacts with the protein, the conformation of the accessible tryptophan residues in the protein also changes, resulting in a shift in fluorescence intensity. For this experiment, to measure the fluorescence of Pgp reconstituted in liposomes, in the presence (250 µM) or absence of drug(s), the excitation and emission wavelengths used were 295 nm and 330 nm, respectively. The proteoliposomes were diluted to a final concentration of 1 µM in Chifflet buffer (pH 7.4) containing 2 mM DTT, and it was titrated against an increasing concentration of acrylamide. A concentration of 11 µM N-acetyl-L-tryptophanamide (NATA), an analog of tryptophan, was used as a positive control to determine non-specific quenching. A saturated concentration of AMPPNP (3.2 mM), a non-hydrolysable form of ATP, was used to generate an outward-open conformation of Pgp. All the experiments for acrylamide quenching were performed at 21 °C. To correct the fluorescence intensities for background, dilution, and inner filter effects, […] was used. A Stern–Volmer plot was constructed with F0(corrected)/F(corrected) versus acrylamide concentration. The slope of the curve determined the degree of quenching, and it was related to the Stern–Volmer constant (Ksv) by Equation (4), as follows:(4) Focorrected/Fcorrected=1+KsvQ where F0(corrected)/F(corrected) = Stern–Volmer plot; Ksv = Stern–Volmer constant; and [Q] = acrylamide concentration.
# [3] = 250 µM drug, 3.2 mM AMPPNP, 21 °C
# [4] = 250 µM drug, 3.2 mM AMPPNP, inferred from Ksv
# [5] = 250 µM drug, absence of AMPPNP, 21 °C, apo-Pgp 2.5 ± 0.04
# [6] = 250 µM drug, no AMPPNP, inferred from Ksv
# T1 sequence (P21447 whole entry): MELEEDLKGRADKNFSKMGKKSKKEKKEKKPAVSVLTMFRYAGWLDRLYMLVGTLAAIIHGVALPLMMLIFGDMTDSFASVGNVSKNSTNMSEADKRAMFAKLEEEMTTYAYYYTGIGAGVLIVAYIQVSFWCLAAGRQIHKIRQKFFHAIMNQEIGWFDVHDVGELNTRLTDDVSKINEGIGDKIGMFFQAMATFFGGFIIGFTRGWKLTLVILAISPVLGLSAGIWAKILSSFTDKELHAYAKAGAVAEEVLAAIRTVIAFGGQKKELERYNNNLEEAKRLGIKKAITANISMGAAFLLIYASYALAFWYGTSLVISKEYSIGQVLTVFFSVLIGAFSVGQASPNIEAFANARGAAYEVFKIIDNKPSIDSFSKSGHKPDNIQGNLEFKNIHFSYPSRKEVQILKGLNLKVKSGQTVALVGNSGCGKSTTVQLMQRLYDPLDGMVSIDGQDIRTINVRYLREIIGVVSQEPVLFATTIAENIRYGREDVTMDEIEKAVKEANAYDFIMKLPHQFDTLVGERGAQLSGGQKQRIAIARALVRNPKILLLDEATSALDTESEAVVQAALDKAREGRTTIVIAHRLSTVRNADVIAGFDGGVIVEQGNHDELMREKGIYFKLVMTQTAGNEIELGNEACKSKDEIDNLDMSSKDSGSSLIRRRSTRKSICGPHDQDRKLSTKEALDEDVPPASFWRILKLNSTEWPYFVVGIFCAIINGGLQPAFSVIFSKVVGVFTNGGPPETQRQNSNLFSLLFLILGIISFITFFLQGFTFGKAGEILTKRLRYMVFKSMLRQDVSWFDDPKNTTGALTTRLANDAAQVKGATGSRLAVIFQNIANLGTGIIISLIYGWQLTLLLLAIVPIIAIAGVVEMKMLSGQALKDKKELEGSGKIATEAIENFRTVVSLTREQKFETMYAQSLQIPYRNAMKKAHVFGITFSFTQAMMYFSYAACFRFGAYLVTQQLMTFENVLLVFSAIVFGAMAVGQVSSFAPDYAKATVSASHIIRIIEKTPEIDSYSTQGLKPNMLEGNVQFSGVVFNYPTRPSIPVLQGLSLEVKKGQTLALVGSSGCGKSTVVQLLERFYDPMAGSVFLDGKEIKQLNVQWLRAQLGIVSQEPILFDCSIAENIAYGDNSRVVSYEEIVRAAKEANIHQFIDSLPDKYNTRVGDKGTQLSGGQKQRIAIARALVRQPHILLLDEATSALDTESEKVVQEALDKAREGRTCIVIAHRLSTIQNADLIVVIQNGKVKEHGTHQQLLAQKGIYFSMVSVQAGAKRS
Compound,Effect on Pgp's ATPase hydrolytic activity relative to basal ([1]; in words),"Vmax of CG-induced Pgp-mediated ATP hydrolysis ([1]; relative to the offset (basal activity), 37 °C, 3.2 mM ATP, 50 nM proteoliposome, modified Michaelis-Menten fit)","Drug-induced Ksv of Pgp (acrylamide quenching), AMPPNP (+) [2, 3]","Drug-induced Ksv of Pgp (acrylamide quenching), AMPPNP (+) ([2]; 250 µM drug, 3.2 mM AMPPNP, 21 °C, listed as digitoxigenin)","Pgp conformation with drug in the presence of a nucleotide [2, 4]","Drug-induced Ksv of Pgp (acrylamide quenching), AMPPNP (-) [2, 5]","Pgp conformation upon drug binding in the absence of a nucleotide [2, 6]",Effect on Pgp's ATPase hydrolytic activity relative to basal [1],Vmax of CG-induced Pgp-mediated ATP hydrolysis [1],"Drug-induced Ksv of Pgp (acrylamide quenching), AMPPNP (+) [2]","Drug-induced Ksv of Pgp (acrylamide quenching), AMPPNP (-) [2]",Pgp conformation upon drug binding in the absence of a nucleotide [2],Pgp conformation with drug in the presence of a nucleotide [2]
"C[C@]12CC[C@H](O)C[C@H]1CC[C@@H]1[C@@H]2CC[C@]2(C)[C@@H](C3=CC(=O)OC3)CC[C@]12O [Digitoxigenin, (3β,5β)-3,14-Dihydroxy-card-20(22)-enolide]",induced,216.02 ± 16.01 nmol/min/mg,1.51 ± 0.02 M⁻¹,1.51 ± 0.02 M⁻¹ and 1.51 ± 0.01 M⁻¹,outward open,1.91 ± 0.04 M⁻¹,intermediate,,,,,,
"C[C@]12CC[C@H](O)C[C@H]1CC[C@@H]1[C@@H]2C[C@@H](O)[C@]2(C)[C@@H](C3=CC(=O)OC3)CC[C@]12O [Digoxigenin, 3β,12β,14-Trihydroxy-5β,20(22)-cardenolide]",induced,,1.70 ± 0.01 M⁻¹,,outward open,2.26 ± 0.04 M⁻¹,intermediate,,,,,,
C[C@H]1O[C@@H](O[C@H]2[C@@H](O)C[C@H](O[C@H]3[C@@H](O)C[C@H](O[C@H]4CC[C@@]5(C)[C@H](CC[C@@H]6[C@@H]5C[C@@H](O)[C@]5(C)[C@@H](C7=CC(=O)OC7)CC[C@]65O)C4)O[C@@H]3C)O[C@@H]2C)C[C@H](O)[C@@H]1O [Digoxin],,,,,,,,induced,277.53 ± 7.24 nmol min^−1 mg^−1 and 277.53 ± 7.24,1.51 ± 0.02 and 1.51 ± 0.02 M^−1,2.55 ± 0.06 and 2.55 ± 0.06 M^−1,no effect,outward open
